Bounds are passed on as bounds.

For the assay, the target named is human neprilysin (EC 3.4.24.11; NEP) (Homo sapiens (Human), UniProt P08473). The assay is described as follows: In vitro enzyme inhibition assay at human NEP (fluorogenic peptide substrate). It is filed as biochemical. Conditions: pKi values at human NEP, recombinant human NEP. On the procedure: In Vitro Assays for the Quantitation of Inhibitor Potencies at Human and Rat NEP, and Human ACE
human neprilysin (EC 3.4.24.11; NEP), sequence (P08473 52-750): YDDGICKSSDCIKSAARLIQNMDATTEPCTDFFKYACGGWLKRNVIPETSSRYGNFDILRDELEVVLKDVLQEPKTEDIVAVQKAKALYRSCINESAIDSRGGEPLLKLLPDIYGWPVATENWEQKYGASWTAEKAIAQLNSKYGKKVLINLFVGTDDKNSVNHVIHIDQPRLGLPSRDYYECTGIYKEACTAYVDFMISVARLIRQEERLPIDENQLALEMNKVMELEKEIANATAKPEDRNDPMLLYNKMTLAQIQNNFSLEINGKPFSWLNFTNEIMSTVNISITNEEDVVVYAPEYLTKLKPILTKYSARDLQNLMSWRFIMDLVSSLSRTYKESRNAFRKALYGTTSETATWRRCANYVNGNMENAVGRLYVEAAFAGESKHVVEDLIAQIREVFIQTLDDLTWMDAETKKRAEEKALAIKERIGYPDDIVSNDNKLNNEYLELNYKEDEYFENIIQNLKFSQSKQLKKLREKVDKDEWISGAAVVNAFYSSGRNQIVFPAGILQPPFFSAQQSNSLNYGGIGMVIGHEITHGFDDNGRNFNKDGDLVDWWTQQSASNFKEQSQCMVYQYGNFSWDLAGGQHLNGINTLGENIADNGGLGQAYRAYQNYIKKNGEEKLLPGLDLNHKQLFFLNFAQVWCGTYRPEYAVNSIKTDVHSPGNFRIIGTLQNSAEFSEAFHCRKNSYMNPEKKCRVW
The inhibitory activities of compounds at human and rat neprilysin (EC 3.4.24.11; NEP) and human angiotensin converting enzyme (ACE) were determined using in vitro assays as described below.
Recombinant human NEP and recombinant human ACE were obtained commercially (R&D Systems, Minneapolis, Minn., catalog numbers 1182-ZN and 929-ZN, respectively). The fluorogenic peptide substrate Mca-D-Arg-Arg-Leu-Dap-(Dnp)-OH (Medeiros et al. (1997) Braz. J. Med. Biol. Res. 30:1157-62; Anaspec, San Jose, Calif.) and Abz-Phe-Arg-Lys(Dnp)-Pro-OH (Araujo et al. (2000) Biochemistry 39:8519-8525; Bachem, Torrance, Calif.) were used in the NEP and ACE assays respectively.
The assays were performed in 384-well white opaque plates at 37° C. using the fluorogenic peptide substrates at a concentration of 10 μM in Assay Buffer (NEP: 50 mM HEPES, pH 7.5, 100 mM NaCl, 0.01% polyethylene glycol sorbitan monolaurate (Tween-20), 10 μM ZnSO4; ACE: 50 mM HEPES, pH 7.5, 100 mM NaCl, 0.01% Tween-20, 1 μM ZnSO4).
Test compounds were assayed over the range of concentrations from 10 μM to pM. Test compounds were added to the enzymes and incubated for 30 minute at 37° C. prior to initiating the reaction by the addition of substrate. Reactions were terminated after 20 minutes of incubation at 37° C. by the addition of glacial acetic acid to a final concentration of 3.6% (v/v).
Plates were read on a fluorometer with excitation and emission wavelengths set to 320 nm and 405 nm, respectively. Inhibition constants were obtained by nonlinear regression of the data using the equation (GraphPad Software, Inc., San Diego, Calif.): v=v0/[1+(I/K′)] where v is the reaction rate, v0 is the uninhibited reaction rate, I is the inhibitor concentration and K′ is the apparent inhibition constant.
Compounds of the invention were tested in this assay and found to have pKi values at human NEP as follows.
As usually defined, the pKi is the Ki on a negative log10 scale, so that one unit is a factor of ten. With `CC(=O)c1cc(C(=O)N[C@H](Cc2ccc(-c3ccccc3)cc2)C[C@@H](O)C(=O)O)[nH]n1` [Example 1-B, (2R,4R)-4-[(5-Acetyl-2H-pyrazole-3-carbonyl)amino]-5-biphenyl-4-yl-2-hydroxypentanoic Acid], the pKi was no less than 9.0.
In the case of `O=C(N[C@H](Cc1ccc(-c2ccccc2)cc1)C[C@H](O)C(=O)O)c1cc(C(=O)O)[nH]n1` [Example 2-C, 5-((1R,3S)-1-Biphenyl-4-ylmethyl-3-carboxy-3-hydroxypropylcarbamoyl)-2H-pyrazole-3-carboxylic Acid], the pKi is no less than 9.0.
Take `O=C(N[C@H](Cc1ccc(-c2ccccc2)cc1)C[C@@H](O)C(=O)O)c1cc(C(=O)O)[nH]n1` [Example 2-D, 5-((1R,3R)-1-Biphenyl-4-ylmethyl-3-carboxy-3-hydroxypropylcarbamoyl)-2H-pyrazole-3-carboxylic Acid]: the pKi is no less than 9.0.
Usually Ki stands for a measure of affinity in units of concentration, obtained from inhibition or displacement. For the compound `COCCN(C)C(=O)c1cc(C(=O)N[C@H](Cc2ccc(-c3ccccc3)cc2)C[C@H](O)C(=O)O)[nH]n1` [Example 3-C, (2S,4R)-5-Biphenyl-4-yl-2-hydroxy-4-({5-[(2-methoxyethyl)methylcarbamoyl]-2H-pyrazole-3-carbonyl}amino)pentanoic Acid], the Ki was 1.26 to 10 nM.
Consider `COCCN(C)C(=O)c1cc(C(=O)N[C@H](Cc2ccc(-c3ccccc3)cc2)C[C@@H](O)C(=O)O)[nH]n1` [Example 3-D, (2R,4R)-5-Biphenyl-4-yl-2-hydroxy-4-({5-[(2-methoxyethyl)methylcarbamoyl]-2H-pyrazole-3-carbonyl}amino)pentanoic Acid], for which the negative logarithm of the Ki (pKi) is recorded as no less than 9.0.
As for `O=C(N[C@H](Cc1ccc(-c2ccccc2)cc1)C[C@@H](O)C(=O)O)c1cc(C(=O)N2CCC2)n[nH]1` [Example 4-B, (2R,4R)-4-{[5-(Azetidine-1-carbonyl)-2H-pyrazole-3-carbonyl]amino}-5-biphenyl-4-yl-2-hydroxy-pentanoic acid], the pKi is recorded as no less than 9.0.
Same read-out and setting: to `O=C(N[C@H](Cc1ccc(-c2ccccc2)cc1)C[C@@H](O)C(=O)O)c1cc(C(=O)N2CCCC2)n[nH]1` [Example 5-B, (2R,4R)-5-Biphenyl-4-yl-2-hydroxy-4-{[5-(pyrrolidine-1-carbonyl)-2H-pyrazole-3-carbonyl]-amino}pentanoic Acid] belongs no less than 9.0; to `O=C(N[C@H](Cc1ccc(-c2ccccc2)cc1)C[C@@H](O)C(=O)O)c1cnc(O)nc1` [Example 6-B, (2R,4R)-5-Biphenyl-4-yl-2-hydroxy-4-[(2-hydroxypyrimidine-5-carbonyl)amino]pentanoic Acid], no less than 9.0; to `O=C(N[C@H](Cc1ccc(-c2ccccc2)cc1)C[C@@H](O)C(=O)O)c1cc(O)no1` [Example 7-B, (2R,4R)-5-Biphenyl-4-yl-2-hydroxy-4-[(3-hydroxyisoxazole-5-carbonyl)amino]pentanoic Acid], no less than 9.0.
Turning to `CC(C)(O)c1cc(C(=O)N[C@H](Cc2ccc(-c3ccccc3)cc2)C[C@@H](O)C(=O)O)n[nH]1` [Example 8-B, (2R,4R)-5-Biphenyl-4-yl-2-hydroxy-4-{[5-(1-hydroxy-1-methylethyl)-1H-pyrazole-3-carbonyl]amino}pentanoic acid], the pKi is no less than 9.0.
With `NC(=O)[C@H](O)C[C@@H](Cc1ccc(-c2ccccc2)cc1)NC(=O)c1cnc(O)nc1` [Example 9, 2-Hydroxypyrimidine-5-carboxylic acid ((1R,3R)-1-biphenyl-4-ylmethyl-3-carbamoyl-3-hydroxypropyl)amide], the Ki was 12.6 to 100 nM.
For `O=C(N[C@H](Cc1ccc(-c2ccccc2)cc1)C[C@@H](O)C(=O)O)c1cnn[nH]1` [Example 10-2, (2R,4R)-5-Biphenyl-4-yl-2-hydroxy-4-[(3H-[1,2,3]triazole-4-carbonyl)amino]pentanoic acid], the Ki was 1.26 to 10 nM.
Regarding `O=C(N[C@H](Cc1ccc(-c2ccccc2)cc1)C[C@@H](O)C(=O)O)c1cn(O)nn1` [Example 10-3, (2R,4R)-5-Biphenyl-4-yl-2-hydroxy-4-[(1-hydroxy-1H-[1,2,3]triazole-4-carbonyl)-amino]-pentanoic acid], the pKi was no less than 9.0.
Turning to `O=C(N[C@H](Cc1ccc(-c2ccccc2)cc1)CC(O)C(=O)O)c1nc[nH]n1` (stereo partly drawn) [Example 10-6, (R)-5-Biphenyl-4-yl-2-hydroxy-4-[(1H-[1,2,4]triazole-3-carbonyl)amino]pentanoic acid], the Ki was 12.6 to 100 nM.
The same measure, in the same setting: to `Cc1nc(C(=O)N[C@H](Cc2ccc(-c3ccccc3)cc2)CC(O)C(=O)O)nn1-c1ccc(Cl)cc1` (stereo partly drawn) [Example 10-7, (R)-5-Biphenyl-4-yl-4-{[1-(4-chlorophenyl)-5-methyl-1H-[1,2,4]triazole-3-carbonyl]-amino}-2-hydroxypentanoic acid] belongs 12.6 to 100 nM; to `O=C(N[C@H](Cc1ccc(-c2ccccc2)cc1)C[C@@H](O)C(=O)O)c1n[nH]c(O)n1` [Example 10-9, (2R,4R)-5-Biphenyl-4-yl-2-hydroxy-4-[(5-hydroxy-1H-[1,2,4]triazole-3-carbonyl)amino]-pentanoic acid], 1.26 to 10 nM.
As to `O=C(N[C@H](Cc1ccc(-c2ccccc2)cc1)CC(O)C(=O)O)c1nnc(-c2ccccn2)[nH]1` (stereo partly drawn) [Example 10-10, (R)-5-Biphenyl-4-yl-2-hydroxy-4-[(5-pyridin-2-yl-4H-[1,2,4]triazole-3-carbonyl)amino]pentanoic acid], the Ki was 1.26 to 10 nM.
With `Cc1n[nH]c(C(=O)N[C@H](Cc2ccc(-c3ccccc3)cc2)CC(O)C(=O)O)n1` (stereo partly drawn) [Example 10-11, (R)-5-Biphenyl-4-yl-2-hydroxy-4-[(5-methyl-2H-[1,2,4]triazole-3-carbonyl)amino]pentanoic acid], the inhibition constant Ki is 12.6 to 100 nM.
With `O=C(N[C@H](Cc1ccc(-c2ccccc2)cc1)C[C@@H](O)C(=O)O)c1nc(Cl)n[nH]1` [Example 10-12, (2R,4R)-5-Biphenyl-4-yl-4-[(5-chloro-2H-[1,2,4]triazole-3-carbonyl)amino]-2-hydroxypentanoic acid], the Ki was 1.26 to 10 nM.
The same measure, in the same setting: to `O=C(O)c1cccc(Cn2nnc3cc(C(=O)N[C@H](Cc4ccc(-c5ccccc5)cc4)CC(O)C(=O)O)ccc32)c1` (stereo partly drawn) [Example 11-1, 3-[5-((R)-1-Biphenyl-4-ylmethyl-3-carboxy-3-hydroxypropylcarbamoyl)-benzotriazol-1-ylmethyl]-benzoic acid] belongs 1.26 to 10 nM; to `O=C(O)c1ccc(Cn2nnc3cc(C(=O)N[C@H](Cc4ccc(-c5ccccc5)cc4)C[C@H](O)C(=O)O)ccc32)cc1` [Example 11-2, 4-[5-((1R,3S)-1-Biphenyl-4-ylmethyl-3-carboxy-3-hydroxypropylcarbamoyl)-benzotriazol-1-ylmethyl]-benzoic acid], 12.6 to 100 nM; to `O=C(N[C@H](Cc1ccc(-c2ccccc2)cc1)CC(O)C(=O)O)c1ccc2[nH]nnc2c1` (stereo partly drawn) [Example 11-3, (R)-4-[(1H-Benzotriazole-5-carbonyl)amino]-5-biphenyl-4-yl-2-hydroxypentanoic acid], 1.26 to 10 nM.
On to `O=C(N[C@H](Cc1ccc(-c2ccccc2)cc1)CC(O)C(=O)O)c1cc(F)c2[nH]nnc2c1` (stereo partly drawn) [Example 11-4, (R)-5-Biphenyl-4-yl-4-[(7-fluoro-1H-benzotriazole-5-carbonyl)amino]-2-hydroxy-pentanoic acid], for which the Ki was 1.26 to 10 nM.
Still for that read-out and setting: next, `Cc1cc(C(=O)N[C@H](Cc2ccc(-c3ccccc3)cc2)CC(O)C(=O)O)cc2[nH]nnc12` (stereo partly drawn) [Example 11-6, (R)-5-Biphenyl-4-yl-2-hydroxy-4-[(7-methyl-3H-benzotriazole-5-carbonyl)amino]pentanoic acid]: 1.26 to 10 nM.
`O=C(N[C@H](Cc1ccc(-c2ccccc2)cc1)CC(O)C(=O)O)c1ccc2[nH]nnc2c1Cl` (stereo partly drawn) [Example 11-7, (R)-5-Biphenyl-4-yl-4-[(4-chloro-1H-benzotriazole-5-carbonyl)amino]-2-hydroxy-pentanoic acid]: the Ki was 1.26 to 10 nM.
Turning to `Cc1nc2ccc(C(=O)N[C@H](Cc3ccc(-c4ccccc4)cc3)CC(O)C(=O)O)cc2o1` (stereo partly drawn) [Example 11-8, (R)-5-Biphenyl-4-yl-2-hydroxy-4-[(2-methyl-benzooxazole-6-carbonyl)-amino]-pentanoic acid], the Ki was 12.6 to 100 nM.
On to `O=C(N[C@H](Cc1ccc(-c2ccccc2)cc1)CC(O)C(=O)O)c1cnc2[nH]cnc2c1` (stereo partly drawn) [Example 11-9, (R)-5-Biphenyl-4-yl-2-hydroxy-4-[(3H-imidazo[4,5-b]pyridine-6-carbonyl)-amino]-pentanoic acid], for which the Ki was 12.6 to 100 nM.
Regarding `O=C(N[C@H](Cc1ccc(-c2ccccc2)cc1)CC(O)C(=O)O)c1cnc2nn[nH]c2c1` (stereo partly drawn) [Example 11-11, (R)-5-Biphenyl-4-yl-2-hydroxy-4-[(1H-[1,2,3]triazolo[4,5-b]pyridine-6-carbonyl)-amino]-pentanoic acid], the Ki was 1.26 to 10 nM.

Source of the values: US10759813B2, “Neprilysin inhibitors” (THERAVANCE BIOPHARMA R&D IP, LLC, priority 2010, dated 2020).
